This is an account of results in article PMC8485799, “Synthesis and Antiprotozoal Profile of 3,4,5‐Trisubstituted Isoxazoles” (ChemistryOpen, 2021).

SMILES strings stand for the structures. Read-outs that look alike come from different tables or passages of the source.

For data set [1], the system named is promastigote forms of Leishmania amazonensis (WHOM/BR/75/JOSEFA strain). The data set can be described thus: Antiproliferative assay (XTT), promastigote forms, 72 h. Type of data set: cell-based. As to conditions: for IC50: Leishmania amazonensis, 72 h, read-out: L. amazonensis IC50; for SIL-F, selectivity index (Fibroblast CC50/L. amazonensis IC50): fibroblast vs promastigote; for SIL-M, selectivity index (Macrophages CC50/L. amazonensis IC50): macrophages vs promastigote. The protocol:
(§1) The antiproliferative activity was determined in promastigote forms of Leishmania amazonensis (WHOM/BR/75/JOSEFA strain) and epimastigote forms of Trypanosoma cruzi (Y strain). The promastigote forms of L. amazonensis were cultured in Warren medium (brain heart infusion, hemin, and folic acid; pH 7.4) supplemented with 10 % fetal bovine serum (FBS) at 25 °C. The epimastigote forms of T.cruzi were cultured in LIT medium (liver infusion tryptose; hemin, and folic acid; pH 7.4) supplemented with 10 % FBS at 28 °C. Cytotoxicity in mammalian cells was determined in fibroblast line (L929) and macrophages (J774 A1). Fibroblasts were cultured in DMEM medium (pH 7.2) supplemented with 10 % FBS at 37 °C in a 5 % CO2 atmosphere. Macrophages were cultured in RPMI‐1640 (pH 7.2) medium supplemented with 10 % FBS at 37 °C in a 5 % CO2 atmosphere.
(§2) Stock solutions of the compounds were prepared in DMSO and then diluted in the respective medium.
(§3) Promastigote forms (1×10^6 parasites.mL^−1) were cultured in 96‐well plates in the presence and absence of different concentrations of compounds diluted in Warren medium supplemented with 10 % FBS and incubated for 72 h. The epimastigote forms (1×10^6 parasites.mL^−1) were cultured in 96‐well plates in the presence and absence of different concentrations of compounds diluted in LIT medium supplemented with 10 % FBS and incubated for 96 h. After treatment, the parasites were incubated with a solution of 2,3‐bis(2‐methoxy‐4‐nitro‐5‐sulfophenyl)‐2H‐tetrazolium‐5‐carboxanilide (XTT; 0.5 mg.mL^−1) and phenazine methanesulfonate activator (PMS; 0.06 mg.mL^−1) in PBS for 4 h. Then, the absorbance was read in a microplate reader (Bio Tek‐Power Wave XS) at 450 nm.[20] The percentage of viable parasites was calculated in relation to the control in order to determine the concentration that inhibits 50 % of the protozoa (IC50). The control groups of each experiment received the same experimental conditions as the treated groups (cell concentration used, temperature, and incubation time).

Data set [2] deals with epimastigote forms of Trypanosoma cruzi (Y strain). The data set can be described thus: Antiproliferative assay (XTT), epimastigote forms, 96 h. The format is cell-based. The following applies: for IC50: Trypanosoma cruzi, 96 h, read-out: T. cruzi IC50; for SIT-F, selectivity index (Fibroblast CC50/T. cruzi IC50): fibroblast vs epimastigote; for SIT-M, selectivity index (Macrophages CC50/T. cruzi IC50): macrophages vs epimastigote. The protocol:
as §1, §2, §3

Data set [3] can be described thus: Cytotoxicity assay in mammalian cells (MTT), fibroblasts, 72 h. The format is cell-based. As to conditions: mouse, pH 7.2, 50 % inhibition of fibroblast growth, 72 h, MTT. The protocol: as §1, §2
(§4) Fibroblast cell (2.5×10^5 cells.mL^−1) suspensions were prepared in DMEM medium supplemented with 10 % FBS and added to 96‐well plates. Then, the plates were incubated at 37 °C in a CO2 atmosphere for 24 h to obtain confluent cell growth. After incubation, cells were treated with different concentrations of compounds diluted in DMEM for 72 h or left untreated. Macrophage (5×10^5 cells.mL^−1) suspensions were prepared in RPMI‐1640 medium supplemented with 10 % FBS and added to 96‐well plates. Then, the plates were incubated at 37 °C in a CO2 atmosphere for 24 h to obtain confluent cell growth. After incubation, cells were treated with different concentrations of compounds diluted in RPMI‐1640 for 48 h or left untreated. After treatment, the medium was removed, and cells were incubated with MTT (2 mg.mL^−1) for 4 h. Then, DMSO was added for solubilization of the formazan and analyzed with a reading microplate reader (BIO‐TEK PowerWave XS spectrophotometer) at […].[20] The percentage of viable cells was calculated in relation to the untreated control group to determine the cytotoxic concentration in 50 % of the cells (CC50). The control groups of each experiment received the same experimental conditions as the treated groups (cell concentration used, temperature, CO2, and incubation time).

Data set [4] in a line: Cytotoxicity assay in mammalian cells (MTT), macrophages, 48 h. Type of data set: cell-based. The following applies: mouse, pH 7.2, 50 % inhibition of macrophages growth, 48 h, MTT. The protocol: as §1, §2, §4

As a reminder, the IC50 is the concentration that gives 50% inhibition. For orientation: CC50 means the concentration that lowers cell viability or growth by half. A high value points to better tolerance by the cells. Broadly, the melting point is the temperature of the solid-liquid transition. For `NNC(=O)c1noc(-c2ccc([N+](=O)[O-])cc2)c1CNc1ccccc1` [3 aa, 3‐Carbohydrazide‐4‐(phenyl)aminomethyl‐5‐(4‐nitrophenyl)isoxazole], the melting point was in the range of 189 to 190.4 °C. Moreover, the IC50 in data set [1] (promastigote form, XTT) came to 42.1 ± 1.3 µM. Besides, in data set [1], the “SIL-F, selectivity index (Fibroblast CC50/L. amazonensis IC50)” value (“SIL-F, selectivity index” below) was determined as 4.71 and the “SIL-M, selectivity index (Macrophages CC50/L. amazonensis IC50)” value (shortened to “SIL-M, selectivity index”) was found to be 3.39. Also, the IC50 in data set [2] (epimastigote form, XTT) is 39.8 ± 3.6 µM. Also, in data set [2], the “SIT-F, selectivity index (Fibroblast CC50/T. cruzi IC50)” value (“SIT-F, selectivity index” below) was 4.98 and the “SIT-M, selectivity index (Macrophages CC50/T. cruzi IC50)” value (“SIT-M, selectivity index” below) was 3.59. The same compound registered a CC50 at 72 h in data set [3] (L929 fibroblast cells) of 198 ± 9.5 µM. Besides, in data set [4] (J774 A1 macrophages), half-maximal cytotoxicity (CC50 at 48 h) was put at 142.8 ± 0.8 µM.
In the case of `NNC(=O)c1noc(-c2ccc([N+](=O)[O-])cc2)c1CNc1ccc(Cl)cc1` [3 ab], the melting point is 174.1 to 176.8 °C. In data set [1] (promastigote form, XTT), the IC50 stood at 15.7 ± 0.4 µM. Further, in data set [1], the “SIL-F, selectivity index” value turned out to be 6.26 and the “SIL-M, selectivity index” value is given as 5.84. In addition, in data set [2] (epimastigote form, XTT), the IC50 worked out at 12.1 ± 0.9 µM. Moreover, in data set [2], the “SIT-F, selectivity index” value was 8.12 and the “SIT-M, selectivity index” value amounted to 7.58. Further, in data set [3] (L929 fibroblast cells), half-maximal cytotoxicity (CC50 at 72 h) was put at 98.3 ± 4.1 µM. In data set [4] (J774 A1 macrophages), this compound gave a CC50 at 48 h of 91.7 ± 3.8 µM.
As to `COc1ccc(NCc2c(C(=O)NN)noc2-c2ccc([N+](=O)[O-])cc2)cc1` [3 ac], the melting point was in the range of 144.2 to 146.8 °C. Besides, in data set [1] (promastigote form, XTT), the half-inhibitory concentration (IC50) is 76.7 ± 0.6 µM. Further, in data set [1], the “SIL-F, selectivity index” value amounted to 6.51 and the “SIL-M, selectivity index” value came to 5.25. The IC50 in data set [2] (epimastigote form, XTT) was 82.9 ± 3.4 µM. Moreover, in data set [2], the “SIT-F, selectivity index” value turned out to be 6.02 and the “SIT-M, selectivity index” value was 4.86. The compound further came in with a CC50 at 72 h in data set [3] (L929 fibroblast cells) of 499 ± 2.7 µM. In data set [4] (J774 A1 macrophages), this compound registered a CC50 at 48 h of 403 ± 11.5 µM.
The compound `NNC(=O)c1noc(-c2ccccc2)c1CNc1ccccc1` [3 ba] displayed a melting point of 151.3 to 152.4 °C. Besides, the IC50 in data set [1] (promastigote form, XTT) was determined as 34.9 ± 2.9 µM. Further, in data set [1], the “SIL-F, selectivity index” value turned out to be 5.41 and the “SIL-M, selectivity index” value was 3.16. The IC50 in data set [2] (epimastigote form, XTT) worked out at 39.5 ± 5.6 µM. In addition, in data set [2], the “SIT-F, selectivity index” value came out at 4.78 and the “SIT-M, selectivity index” value was determined as 2.79. For the same compound, the CC50 at 72 h in data set [3] (L929 fibroblast cells) was 189 ± 9 µM. In addition, in data set [4] (J774 A1 macrophages), half-maximal cytotoxicity (CC50 at 48 h) was put at 110 ± 5.6 µM.
Consider `NNC(=O)c1noc(-c2ccccc2)c1CNc1ccc(Cl)cc1` [3 bb], for which the melting point is 190.6 to 191.6 °C. Also, in data set [1], the IC50 worked out at 35.7 ± 6 µM; the “SIL-F, selectivity index” value is on record as 8.07; the “SIL-M, selectivity index” value is reported as 6.48. In data set [2], the IC50 was 39 ± 7.1 µM; the “SIT-F, selectivity index” value amounted to 7.38; the “SIT-M, selectivity index” value came out at 5.93. In data set [3], this compound came in with a CC50 at 72 h of 288 ± 9.9 µM. This compound showed a CC50 at 48 h in data set [4] of 231 ± 8.1 µM.
`COc1ccc(NCc2c(C(=O)NN)noc2-c2ccccc2)cc1` [3 bc] gave a melting point of 132.2 to 135.4 °C. In addition, in data set [1] (promastigote form, XTT), the IC50 turned out to be 12.4 ± 1.7 µM. Besides, in data set [1], the “SIL-F, selectivity index” value is reported as 15.35 and the “SIL-M, selectivity index” value worked out at 14.97. Moreover, in data set [1] (span over both cell lines (fibroblast, macrophages) and both parasites (L. amazonensis, T. cruzi)), the “Selectivity index (SI), overall” value is on record as “greater than 14”. In data set [2] (epimastigote form, XTT), the IC50 is 15 ± 0.8 µM. Further, in data set [2], the “SIT-F, selectivity index” value was found to be 12.69 and the “SIT-M, selectivity index” value came out at 12.38. In data set [3] (L929 fibroblast cells), this compound returned a CC50 at 72 h of 190 ± 3.7 µM. The CC50 at 48 h in data set [4] (J774 A1 macrophages) came out at 186 ± 6.1 µM.
The compound `NNC(=O)c1noc(-c2ccc(F)cc2)c1CNc1ccccc1` [3 ca] came in with a melting point of 174 to 175 °C. In addition, the IC50 in data set [1] (promastigote form, XTT) was 20.3 ± 0.9 µM. In data set [1], the “SIL-M, selectivity index” value is given as 8.57. In data set [2] (epimastigote form, XTT), the IC50 stood at 22.8 ± 1.7 µM. In addition, in data set [2], the “SIT-F, selectivity index” value was 10.25 and the “SIT-M, selectivity index” value is listed as 7.63. This compound displayed a CC50 at 72 h in data set [3] (L929 fibroblast cells) of 198 ± 5 µM. The midpoint of cytotoxicity in data set [4] (J774 A1 macrophages), the CC50 at 48 h, lay at 174 ± 8.1 µM.
